# Literature values as cited in patent US20130085131A1, “HETEROCYCLIC COMPOUNDS AND THEIR USES” (Amgen Inc., priority 2010, published 2013).
# Legend:
# [1] = system: model of systemic lupus erythematosis; conditions: in vivo
# [2] = system: mouse model of rheumatoid arthritis
# murine model of asthma = conditions: ovalbumin-induced airway inflammation
# [3] = system: murine model of allergic disease; conditions: absence of functional delta (IC 87114 and p110δ D910A mice)
# p110δ = biological target: T1, p110δ (Homo sapiens, UniProt O00329)
# T1 sequence (O00329 1-1044): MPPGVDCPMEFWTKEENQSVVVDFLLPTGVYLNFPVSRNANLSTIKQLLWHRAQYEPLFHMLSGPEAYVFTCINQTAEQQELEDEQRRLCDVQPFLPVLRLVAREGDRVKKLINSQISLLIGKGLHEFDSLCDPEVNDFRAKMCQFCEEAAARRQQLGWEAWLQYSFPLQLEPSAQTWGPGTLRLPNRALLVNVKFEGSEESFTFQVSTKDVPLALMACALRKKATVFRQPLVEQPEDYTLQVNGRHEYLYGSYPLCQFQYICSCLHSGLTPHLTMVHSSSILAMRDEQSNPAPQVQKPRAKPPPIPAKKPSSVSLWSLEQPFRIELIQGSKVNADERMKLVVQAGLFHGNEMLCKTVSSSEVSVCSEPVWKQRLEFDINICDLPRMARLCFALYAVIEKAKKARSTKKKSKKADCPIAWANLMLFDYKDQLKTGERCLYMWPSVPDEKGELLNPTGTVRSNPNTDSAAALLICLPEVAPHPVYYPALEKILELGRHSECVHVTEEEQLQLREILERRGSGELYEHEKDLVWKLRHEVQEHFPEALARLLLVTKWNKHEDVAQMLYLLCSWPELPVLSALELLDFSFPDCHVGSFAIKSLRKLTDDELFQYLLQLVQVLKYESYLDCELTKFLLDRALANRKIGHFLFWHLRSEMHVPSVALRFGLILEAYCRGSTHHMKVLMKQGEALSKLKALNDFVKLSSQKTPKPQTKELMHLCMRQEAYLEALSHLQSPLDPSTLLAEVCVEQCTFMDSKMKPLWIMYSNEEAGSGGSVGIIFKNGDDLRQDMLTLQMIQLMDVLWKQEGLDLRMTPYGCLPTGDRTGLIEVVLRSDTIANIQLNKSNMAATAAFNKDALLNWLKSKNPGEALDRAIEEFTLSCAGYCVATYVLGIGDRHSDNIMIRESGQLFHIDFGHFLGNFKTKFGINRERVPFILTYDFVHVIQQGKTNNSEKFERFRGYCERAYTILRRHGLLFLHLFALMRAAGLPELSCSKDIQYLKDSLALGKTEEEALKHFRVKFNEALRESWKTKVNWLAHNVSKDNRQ
SMILES,onset of disease in a model of systemic lupus erythematosis [1],efficacy in a mouse model of rheumatoid arthritis [2],inflammation and disease in a murine model of asthma (murine model of asthma),passive cutaneous anaphylaxis (PCA) [3],inhibition of p110δ (p110δ),activity against any protein kinases tested (protein kinases)
O=C1NC(=O)/C(=C\c2ccc3nccnc3c2)S1 [AS 605240],delay onset of disease,efficacious,–,–,–,–
Cc1ccccc1-n1c(Cn2cnc3c(N)ncnc32)nc2cccc(C)c2c1=O [IC87114],–,–,significantly ameliorate,significantly reduced,high nanomolar range (triple digit),no activity
